Measured values published in patent publication US10323018B2 (Millennium Pharmaceuticals, Inc., priority 2015, dated 2019).
pIC50: −log10 of the molar value. Where two headings read alike, the source gives them in different places.

How the values were obtained:
[1] = molecular target: hNAMPT protein (Homo sapiens (Human), UniProt P43490); assay: NAMPT enzyme assay (TR-FRET/HTRF with BodiPY ligand); format: binding; settings: for inhibition at 1 µM: read-out: Percent Inhibition; for pIC50: NAMPT inhibition, IC50 range class
How it was run: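 Ligand displacement by TR-FRET: BodiPY emission (520 nm) over terbium (486 nm) after 320 nm excitation. Compound, BodiPY ligand, hNAMPT and anti-6His-Tb incubated 1 h at room temperature, dark, at pH 7.5. Percent inhibition computed versus DMSO; concentration-response curves fitted for IC50.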

[2] = system: PC3 cells; assay: PC3 growth inhibition (Cell-titer glo, 72 hours); format: cell-based; settings: Homo sapiens, PC-3, 72 h, read-out: Percent Viability, PC3 cells, compound concentration 1.667 μM, 72 hours
How it was run: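 After 72 h compound treatment in AIM serum-free medium (37 °C, 5% CO2), viability of overnight-plated PC3 cells (8×10^4 cells/ml, RPMI1640-maintained) is read by CellTiter-Glo luminescence versus DMSO. Curves give GI50, LD50 or single-concentration % remaining viability.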

[3] = NAMPT inhibition at compound concentration 1 μM

Chain of hNAMPT protein (P43490 whole entry): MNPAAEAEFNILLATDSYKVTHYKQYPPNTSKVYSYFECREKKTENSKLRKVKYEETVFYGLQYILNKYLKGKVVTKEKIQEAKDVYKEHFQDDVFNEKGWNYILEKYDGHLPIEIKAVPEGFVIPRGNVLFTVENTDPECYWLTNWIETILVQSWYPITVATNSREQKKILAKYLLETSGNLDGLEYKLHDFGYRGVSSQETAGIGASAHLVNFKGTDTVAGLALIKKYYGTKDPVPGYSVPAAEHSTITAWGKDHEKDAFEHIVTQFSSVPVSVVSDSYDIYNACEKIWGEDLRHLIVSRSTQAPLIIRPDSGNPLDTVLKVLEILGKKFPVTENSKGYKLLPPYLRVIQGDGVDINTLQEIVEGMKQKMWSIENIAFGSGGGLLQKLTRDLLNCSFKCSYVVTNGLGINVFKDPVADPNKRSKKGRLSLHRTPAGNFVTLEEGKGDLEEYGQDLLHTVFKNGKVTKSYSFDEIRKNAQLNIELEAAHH

For `CCOc1cc(-c2ccc(OC)nc2)nc2cc(C(=O)NCCCc3cnn[nH]3)ccc12` [Compound I-102, 4-ethoxy-2-(6-methoxypyridin-3-yl)-N-[3-(1H-1,2,3-triazol-5-yl)propyl]quinoline-7-carboxamide], the inhibition at 1 µM [1, 3] was 99%, the pIC50 [1] was greater than 8.00 and the viability at 1.667 µM [2] was 2%.
Work on `CCOc1cc(-c2ccc(F)cc2)nc2cc(C(=O)NCCc3nnc[nH]3)ccc12` [Compound I-131, 4-ethoxy-2-(4-fluorophenyl)-N-[2-(4H-1,2,4-triazol-3-yl)ethyl]quinoline-7-carboxamide] yielded an inhibition at 1 µM [1, 3] of 99%, a pIC50 [1] of 7.30 to 8.00 and a viability at 1.667 µM [2] of 3%.
In the case of `Cc1nc(-c2ccc(Cl)cc2)nc2cc(C(=O)NCCCc3nnc[nH]3)ccc12` [Compound I-63, N-(3-(4H-1,2,4-triazol-3-yl)propyl)-2-(4-chlorophenyl)-4-methylquinazoline-7-carboxamide], the inhibition at 1 µM [1, 3] was 77%, the pIC50 [1] was less than 7.00 and the viability at 1.667 µM [2] was 7%.
In the case of `O=C(NCCCc1ncc[nH]1)c1ccc2c(OCCO)cc(-c3ccc(F)cc3)nc2c1` [Compound I-229, 2-(4-fluorophenyl)-4-(2-hydroxyethoxy)-N-[3-(1H-imidazol-2-yl)propyl]quinoline-7-carboxamide], the inhibition at 1 µM [1, 3] was 99%, the pIC50 [1] was greater than 8.00 and the viability at 1.667 µM [2] was 2%.
Molecule `CCOc1cc(-c2ccnc(C(F)(F)F)c2)nc2cc(C(=O)NCCCc3nnc[nH]3)ccc12` [Compound I-218, 4-ethoxy-N-[3-(4H-1,2,4-triazol-3-yl)propyl]-2-[2-(trifluoromethyl)pyridin-4-yl]quinoline-7-carboxamide] has an inhibition at 1 µM [1, 3] of 93%, a pIC50 [1] of 7.00 to 7.30 and a viability at 1.667 µM [2] of 2%.
`CCNc1cc(-c2ccc(F)cc2)nc2cc(C(=O)NCCCc3nnc[nH]3)ccc12` [Compound I-151, 4-(ethylamino)-2-(4-fluorophenyl)-N-[3-(4H-1,2,4-triazol-3-yl)propyl]quinoline-7-carboxamide] was tested, and the inhibition at 1 µM [1, 3] was 61%, the pIC50 [1] was less than 7.00 and the viability at 1.667 µM [2] was 3%.
`CCOCc1nc(-c2ccc(Cl)cc2)nc2cc(C(=O)NCCCc3ncc[nH]3)ccc12` [Compound I-20, 2-(4-chlorophenyl)-4-(ethoxymethyl)-N-[3-(1H-imidazol-2-yl)propyl]quinazoline-7-carboxamide] was tested, and the inhibition at 1 µM [1, 3] was 98%, the pIC50 [1] was 7.30 to 8.00 and the viability at 1.667 µM [2] was 1%.
`CCOc1cc(-c2cncc(OC)c2)nc2cc(C(=O)NCCCc3nnc[nH]3)ccc12` [Compound I-210, 4-ethoxy-2-(5-methoxypyridin-3-yl)-N-[3-(4H-1,2,4-triazol-3-yl)propyl]quinoline-7-carboxamide] showed an inhibition at 1 µM [1, 3] of 94%, a pIC50 [1] of 7.30 to 8.00 and a viability at 1.667 µM [2] of 1%.
In the case of `CCCc1cc(-c2ccc(F)cc2)nc2cc(C(=O)NCCCc3cc[nH]n3)ccc12` [Compound I-147, 2-(4-fluorophenyl)-4-propyl-N-[3-(1H-pyrazol-3-yl)propyl]quinoline-7-carboxamide], the inhibition at 1 µM [1, 3] was 92%, the pIC50 [1] was 7.00 to 7.30 and the viability at 1.667 µM [2] was 2%.
`COCCOCc1nc(-c2ccc(Cl)cc2)nc2cc(C(=O)NCCCc3nnc[nH]3)ccc12` [Compound I-64, N-(3-(4H-1,2,4-yriazol-3-yl)propyl)-2-(4-chlorophenyl)-4-((2-methoxyethoxy)methyl)quinazoline-7-carboxamide] showed an inhibition at 1 µM [1, 3] of 91%, a pIC50 [1] of 7.00 to 7.30 and a viability at 1.667 µM [2] of 1%.
`CCOc1cc(-c2cccnc2OC)nc2cc(C(=O)NCc3nc4ccncc4[nH]3)ccc12` [Compound I-192, 4-ethoxy-N-(3H-imidazo[4,5-c]pyridin-2-ylmethyl)-2-(2-methoxypyridin-3-yl)quinoline-7-carboxamide] gave an inhibition at 1 µM [1, 3] of 100%, a pIC50 [1] greater than 8.00 and a viability at 1.667 µM [2] of 3%.
Molecule `CCOc1cc(-c2ccc(F)cc2OC)nc2cc(C(=O)NCCCc3cc[nH]n3)ccc12` [Compound I-128, 4-ethoxy-2-(4-fluoro-2-methoxyphenyl)-N-[3-(1H-pyrazol-3-yl)propyl]quinoline-7-carboxamide] has an inhibition at 1 µM [1, 3] of 96%, a pIC50 [1] of 7.30 to 8.00 and a viability at 1.667 µM [2] of 2%.
In the case of `CCOc1cc(-c2ccc(F)cc2)nc2cc(C(=O)NCc3cc4cnccc4s3)ccc12` [Compound I-79, 4-ethoxy-2-(4-fluorophenyl)-N-(thieno[3,2-c]pyridin-2-ylmethyl)quinoline-7-carboxamide], the inhibition at 1 µM [1, 3] was 99%, the pIC50 [1] was greater than 8.00 and the viability at 1.667 µM [2] was 2%.
`CCOc1cc(-c2ccn(C)c(=O)c2)nc2cc(C(=O)NCCCc3cnn[nH]3)ccc12` [Compound I-95, 4-ethoxy-2-(1-methyl-2-oxo-1,2-dihydropyridin-4-yl)-N-[3-(1H-1,2,3-triazol-5-yl)propyl]quinoline-7-carboxamide] gave an inhibition at 1 µM [1, 3] greater than 99%, a pIC50 [1] greater than 8.00 and a viability at 1.667 µM [2] of 1%.
`CCCc1nc(-c2ccc(Cl)cc2)nc2cc(C(=O)N[C@H]3C[C@@H](c4ncc[nH]4)C3)ccc12` [Compound I-3, 2-(4-Chlorophenyl)-N-[cis-3-(1H-imidazol-2-yl)cyclobutyl]-4-propyl-quinazoline-7-carboxamide] was tested, and the inhibition at 1 µM [1, 3] was 94%, the pIC50 [1] was 7.30 to 8.00 and the viability at 1.667 µM [2] was 2%.
`CCOc1cc(-c2ccc(=O)n(C)c2)nc2cc(C(=O)NCCCc3[nH]nnc3C)ccc12` [Compound I-97, 4-ethoxy-2-(1-methyl-6-oxo-1,6-dihydropyridin-3-yl)-N-[3-(4-methyl-1H-1,2,3-triazol-5-yl)propyl]quinoline-7-carboxamide] was tested, and the inhibition at 1 µM [1, 3] was greater than 99%, the pIC50 [1] was 7.30 to 8.00 and the viability at 1.667 µM [2] was 2%.
With `CCOc1cc(-c2ccnc(C)c2)nc2cc(C(=O)NCCc3cnn[nH]3)ccc12` [Compound I-181, 4-ethoxy-2-(2-methylpyridin-4-yl)-N-[2-(1H-1,2,3-triazol-5-yl)ethyl]quinoline-7-carboxamide] the inhibition at 1 µM [1, 3] was 86%, the pIC50 [1] was less than 7.00 and the viability at 1.667 µM [2] was 9%.
`COc1nc(-c2ccc(Cl)cc2)nc2cc(C(=O)NCCCc3ncc[nH]3)ccc12` [Compound I-10, 2-(4-chlorophenyl)-N-[3-(1H-imidazol-2-yl)propyl]-4-methoxyquinazoline-7-carboxamide] showed an inhibition at 1 µM [1, 3] of 100%, a pIC50 [1] greater than 8.00 and a viability at 1.667 µM [2] of 1%.
`CCOc1cc(-c2ccc(OC)nc2)nc2cc(C(=O)NCCc3c[nH]nn3)ccc12` [Compound I-185, 4-ethoxy-2-(6-methoxypyridin-3-yl)-N-[2-(1H-1,2,3-triazol-4-yl)ethyl]quinoline-7-carboxamide] showed an inhibition at 1 µM [1, 3] of 98%, a pIC50 [1] of 7.30 to 8.00 and a viability at 1.667 µM [2] of 2%.
`CCOc1cc(-c2ccnc(C)c2)nc2cc(C(=O)NCCCc3nnc[nH]3)ccc12` [Compound I-202, 4-ethoxy-2-(2-methylpyridin-4-yl)-N-[3-(4H-1,2,4-triazol-3-yl)propyl]quinoline-7-carboxamide] showed an inhibition at 1 µM [1, 3] of 98%, a pIC50 [1] of 7.30 to 8.00 and a viability at 1.667 µM [2] of 1%.
`CCOc1cc(-c2ccc(Cl)cc2)nc2cc(C(=O)NCCCc3nnc[nH]3)ccc12` [Compound I-198] was tested, and the inhibition at 1 µM [1, 3] was 94% and the viability at 1.667 µM [2] was 3%.
Molecule `CCOc1cc(-c2ccc(F)cc2)nc2cc(C(=O)NCCc3ccn[nH]3)ccc12` [Compound I-46, 4-ethoxy-2-(4-fluorophenyl)-N-[2-(1H-pyrazol-5-yl)ethyl]quinoline-7-carboxamide] has an inhibition at 1 µM [1, 3] of 97%, a pIC50 [1] of 7.30 to 8.00 and a viability at 1.667 µM [2] of 3%.
In the case of `CCOc1cc(-c2ccc(F)cc2OC)nc2cc(C(=O)NCCCc3[nH]nnc3C)ccc12` [Compound I-106, 4-ethoxy-2-(4-fluoro-2-methoxyphenyl)-N-[3-(4-methyl-1H-1,2,3-triazol-5-yl)propyl]quinoline-7-carboxamide], the inhibition at 1 µM [1, 3] was 100%, the pIC50 [1] was 7.30 to 8.00 and the viability at 1.667 µM [2] was 2%.
`CCOc1cc(-c2ccc(F)cc2)nc2cc(C(=O)NCCCc3cncn3C)ccc12` [Compound I-224, 4-ethoxy-2-(4-fluorophenyl)-N-[3-(1-methyl-1H-imidazol-5-yl)propyl]quinoline-7-carboxamide] was tested, and the inhibition at 1 µM [1, 3] was greater than 99%, the pIC50 [1] was greater than 8.00 and the viability at 1.667 µM [2] was 2%.
`CCOc1cc(-c2ccc(F)cc2)nc2cc(C(=O)NCCc3cn[nH]c3)ccc12` [Compound I-48, 4-ethoxy-2-(4-fluorophenyl)-N-[2-(1H-pyrazol-4-yl)ethyl]quinoline-7-carboxamide] gave an inhibition at 1 µM [1, 3] of 97%, a pIC50 [1] of 7.30 to 8.00 and a viability at 1.667 µM [2] of 4%.
Work on `CCSc1nc(-c2ccc(F)cc2)nc2cc(C(=O)NCCCc3ncc[nH]3)ccc12` [Compound I-27, 4-(ethylsulfanyl)-2-(4-fluorophenyl)-N-[3-(1H-imidazol-2-yl)propyl]quinazoline-7-carboxamide] yielded a pIC50 [1] greater than 8.00, an inhibition at 1 µM [1] of 98% and a viability at 1.667 µM [2] of 1%.
In the case of `CCOc1c(F)c(-c2ccc(F)cc2)nc2cc(C(=O)NCCCc3nnc[nH]3)ccc12` [Compound I-78, 4-ethoxy-3-fluoro-2-(4-fluorophenyl)-N-[3-(4H-1,2,4-triazol-3-yl)propyl]quinoline-7-carboxamide], the inhibition at 1 µM [1, 3] was 99%, the pIC50 [1] was greater than 8.00 and the viability at 1.667 µM [2] was 2%.
For `CC(C)Cc1nc(-c2ccc(Cl)cc2)nc2cc(C(=O)NCCCc3ncc[nH]3)ccc12` [Compound I-21, 2-(4-chlorophenyl)-N-[3-(1H-imidazol-2-yl)propyl]-4-isobutylquinazoline-7-carboxamide], the inhibition at 1 µM [1, 3] was 99%, the pIC50 [1] was 7.30 to 8.00 and the viability at 1.667 µM [2] was 0%.
`CCCc1nc(-c2ccc(Cl)s2)nc2cc(C(=O)NCCCc3ncc[nH]3)ccc12` [Compound I-24, 2-(5-chloro-2-thienyl)-N-[3-(1H-imidazol-2-yl)propyl]-4-propylquinazoline-7-carboxamide] gave an inhibition at 1 µM [1, 3] greater than 99%, a pIC50 [1] greater than 8.00 and a viability at 1.667 µM [2] of 1%.
